According to patent US11767323B2, “Tricyclic pyridone compounds as JAK2 V617F inhibitors” (Incyte Corporation, priority 2020, dated 2023):

Columns and labels:
[1] = target: catalytic domain (JH1, amino acids 808-1132) of human JAK2 (Homo sapiens (Human), UniProt O60674); test: JAK2 HTRF Enzyme Activity Assay; assay type: biochemical; details: JAK2 0.015 nM, ATP (30 μM or 1 mM), 60 minutes at 25° C.
[2] = target: pseudo-kinase domain (JH2, amino-acids 536-812) of human Wild Type JAK2 (Homo sapiens (Human), UniProt O60674, F794H/W659A/W777A); test: JAK2 LanthaScreen JH2-WT Binding Assay; details: JAK2 JH2-WT 0.145 nM, 50 nM tracer, 1 hour at 25° C.; read-out: JH2 BIND WT IC50
Chain of pseudo-kinase domain (JH2, amino-acids 536-812) of human Wild Type JAK2 (O60674 536-812 W659A/W777A/F794H): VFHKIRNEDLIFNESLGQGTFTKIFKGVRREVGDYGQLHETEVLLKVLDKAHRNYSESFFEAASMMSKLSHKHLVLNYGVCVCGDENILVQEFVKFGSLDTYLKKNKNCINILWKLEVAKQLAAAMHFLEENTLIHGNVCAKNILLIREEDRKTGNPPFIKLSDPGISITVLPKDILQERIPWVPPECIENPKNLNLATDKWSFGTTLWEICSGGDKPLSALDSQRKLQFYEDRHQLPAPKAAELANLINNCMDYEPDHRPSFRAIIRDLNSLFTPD
Summary of the method: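 Biotinylated His-Avi-tagged JH2 construct carrying W659A/W777A/F794H surface mutations, 0.145 nM, incubated 1 h at 25° C with compound, 50 nM fluorescent JH2 tracer and 0.25 nM streptavidin-Tb in pH 7.5 Tris buffer. Non-specific binding defined with 2 mM ATP. TR-FRET read; IC50 from four-parameter fit.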

[3] = target: catalytic domain (JH1, amino acids 826-1132) of human JAK2 (Homo sapiens (Human), UniProt O60674); test: JAK2 LanthaScreen JH1 Binding Assay; details: JAK2 JH1 1.5 nM, 50 nM tracer, 2 hours at 25° C.; read-out: JH1 BIND IC50
Chain of catalytic domain (JH1, amino acids 826-1132) of human JAK2 (O60674 826-1132): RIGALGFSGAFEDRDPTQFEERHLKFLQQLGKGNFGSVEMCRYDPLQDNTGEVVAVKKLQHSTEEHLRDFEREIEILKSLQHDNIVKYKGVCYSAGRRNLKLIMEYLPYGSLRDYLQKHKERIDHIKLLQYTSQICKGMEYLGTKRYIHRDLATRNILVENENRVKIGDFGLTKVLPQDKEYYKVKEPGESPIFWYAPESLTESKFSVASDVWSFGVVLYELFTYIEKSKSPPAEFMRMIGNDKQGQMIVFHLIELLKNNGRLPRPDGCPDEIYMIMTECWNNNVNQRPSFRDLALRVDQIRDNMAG
Summary of the method: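 Reaction held 1.5 nM biotinylated FLAG-JAK2 JH1, 50 nM tracer and 0.5 nM streptavidin-Tb in pH 7.5 Tris buffer; 2 mM ATP defined nonspecific binding.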

[4] = target: pseudo-kinase domain (JH2, amino-acids 536-812) of human V617F mutant JAK2 (Homo sapiens (Human), UniProt O60674, F794H/V617F/W659A/W777A); test: JAK2 LanthaScreen JH2-V617F Binding Assay; details: JAK2 JH2-V617F 0.26 nM, 50 nM tracer, 1 hour at 25° C.; read-out: JH2 BIND V617F IC50
Chain of pseudo-kinase domain (JH2, amino-acids 536-812) of human V617F mutant JAK2 (O60674 536-812 V617F/W659A/W777A/F794H): as the sequence (O60674 536-812 W659A/W777A/F794H) above, with V82F counted along it
Summary of the method: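 This is a TR-FRET tracer-displacement format with a 1 h, 25 °C incubation. It combined 0.26 nM baculovirus-expressed biotinylated JH2-V617F, 50 nM fluorescent JAK2-JH2 tracer and 0.25 nM streptavidin-Tb cryptate in 50 mM Tris pH 7.5, 10 mM MgCl2, 5 mM DTT. Background came from 2 mM ATP, and IC50 values were from four-parameter dose-response fits.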

Chain of catalytic domain (JH1, amino acids 808-1132) of human JAK2 (O60674 808-1132): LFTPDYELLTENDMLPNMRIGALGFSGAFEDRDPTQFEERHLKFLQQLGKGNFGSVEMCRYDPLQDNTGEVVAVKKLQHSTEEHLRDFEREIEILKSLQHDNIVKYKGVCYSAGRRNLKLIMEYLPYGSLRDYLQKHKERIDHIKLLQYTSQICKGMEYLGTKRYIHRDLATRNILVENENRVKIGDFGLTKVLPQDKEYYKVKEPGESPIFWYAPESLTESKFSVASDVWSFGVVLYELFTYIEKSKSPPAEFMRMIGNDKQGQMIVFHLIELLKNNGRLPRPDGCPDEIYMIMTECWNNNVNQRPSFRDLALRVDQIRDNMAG

Row | Compound | IC50 [1] | IC50 [2] | IC50 [3] | IC50 [4]
1 | CS(=O)(=O)C1CCN(Cc2ccc(-c3cc4c(ncc5[nH]c(=O)c(-c6ccc(C(=O)O)cc6)cc54)[nH]3)cc2)CC1 [Example 2, 4-(2-(4-((4-(Methylsulfonyl)piperidin-1-yl)methyl)phenyl)-7-oxo-6,7-dihydro-3H-pyrrolo[3,2-f][1,7]naphthyridin-8-yl)benzoic acid] | > 10000 nM | ≤ 100 nM | > 10000 nM | ≤ 100 nM
2 | Cc1cc(-c2c(-c3ccc(NC4CCOCC4)cc3)c3c4cc(-c5cnn(C)c5)[nH]c4ncc3n(C)c2=O)on1 [Example 30, 6-Methyl-2-(1-methyl-1H-pyrazol-4-yl)-8-(3-methylisoxazol-5-yl)-9-(4-((tetrahydro-2H-pyran-4-yl)amino)phenyl)-3,6-dihydro-7H-pyrrolo[3,2-f][1,7]naphthyridin-7-one] | 500 to 1000 nM | ≤ 100 nM | 500 to 1000 nM | ≤ 100 nM
3 | CN(C)C(=O)c1ccc(-c2c(-c3cnn(C)c3)[nH]c3ncc4c(cc(N5CCC(S(C)(=O)=O)CC5)c(=O)n4C)c23)cc1 [Example 39, N,N-dimethyl-4-(6-methyl-2-(1-methyl-1H-pyrazol-4-yl)-8-(4-(methylsulfonyl)piperidin-1-yl)-7-oxo-6,7-dihydro-3H-pyrrolo[3,2-f][1,7]naphthyridin-1-yl)benzamide] | 100 to 500 nM | ≤ 100 nM | 100 to 500 nM | ≤ 100 nM
4 | CN(C)C(=O)c1cc2c3c(-c4ccc5c(cnn5C)c4)c(-c4cnn(C)c4)[nH]c3ncc2n(C)c1=O [Example 43, N,N,6-trimethyl-1-(1-methyl-1H-indazol-5-yl)-2-(1-methyl-1H-pyrazol-4-yl)-7-oxo-6,7-dihydro-3H-pyrrolo[3,2-f][1,7]naphthyridine-8-carboxamide] | 1000 to 10000 nM | ≤ 100 nM | 1000 to 10000 nM | ≤ 100 nM
5 | Cc1cc(=O)[nH]c2cnc3[nH]c(-c4ccc(CN5CCC(S(C)(=O)=O)CC5)cc4)cc3c12 [Example 17, 9-Methyl-2-(4-((4-(methylsulfonyl)piperidin-1-yl)methyl)phenyl)-3,6-dihydro-7H-pyrrolo[3,2-f][1,7]naphthyridin-7-one] | 1000 to 10000 nM | 1000 to 10000 nM | 1000 to 10000 nM | 1000 to 10000 nM
6 | CN(C)C(=O)c1ccc(-c2c(-c3cnn(C)c3)[nH]c3ncc4c(cc(Nc5cccc(-c6nnn[nH]6)c5)c(=O)n4C)c23)cc1 [Example 34, 4-(8-((3-(1H-tetrazol-5-yl)phenyl)amino)-6-methyl-2-(1-methyl-1H-pyrazol-4-yl)-7-oxo-6,7-dihydro-3H-pyrrolo[3,2-f][1,7]naphthyridin-1-yl)-N,N-dimethylbenzamide] | 100 to 500 nM | ≤ 100 nM | 100 to 500 nM | ≤ 100 nM
7 | Cc1c(-c2ccc3c(c2)OCCO3)c(=O)[nH]c2cnc3[nH]c(-c4ccc(CN5CCC(S(C)(=O)=O)CC5)cc4)cc3c12 [Example 19, 8-(2,3-Dihydrobenzo[6][1,4]dioxin-6-yl)-9-methyl-2-(4-((4-(methylsulfonyl)piperidin-1-yl)methyl)phenyl)-3,6-dihydro-7H-pyrrolo[3,2-f][1,7]naphthyridin-7-one] | 1000 to 10000 nM | 1000 to 10000 nM | 1000 to 10000 nM | 1000 to 10000 nM
8 | Cc1cc(-c2c(-c3ccc(CNC4CCCOC4)cc3)c3c4cc(-c5cnn(C)c5)[nH]c4ncc3n(C)c2=O)on1 (centres unmarked) [Example 28, 6-Methyl-2-(1-methyl-1H-pyrazol-4-yl)-8-(3-methylisoxazol-5-yl)-9-(4-(((tetrahydro-2H-pyran-3-yl)amino)methyl)phenyl)-3,6-dihydro-7H-pyrrolo[3,2-f][1,7]naphthyridin-7-one] | 100 to 500 nM | ≤ 100 nM | 100 to 500 nM | ≤ 100 nM
